Assay in all cases: NCI anticancer screen, dose series, 48 h
Experiment [1] has as its system OVCAR-4 ovarian.
Experiment [2] has as its system CCRF-CEM leukemia.
Experiment [3] has as its system HCT-15 colon.
Experiment [4] relates to SK-MEL-5 melanoma.
Experiment [5] deals with HL-60(TB) leukemia.
The test system of experiment [6] is M14 melanoma.
Experiment [7] has as its system SW-620 colon.
For experiment [8], the system named is SK-MEL-2 melanoma.
The subject of experiment [9] is OVCAR-5 ovarian.
Experiment [10] has as its system UACC-257 melanoma.

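Five concentrations, 48 hours, 96-well plates. GI50 is the concentration that inhibits growth by half. Definition used: TGI = concentration required for complete inhibition of growth.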

`CCCCCCCCCOC(=S)NC`: the TGI in experiment [1] came out at 42.2 µM; in experiment [2], 47.7 µM; in experiment [3] it was 36.1 µM; in experiment [4] it was 39.6 µM; in [5], 34.1 µM; in [6], 45.8 µM. The TGI turned out to be 40.9 µM in experiment [7], 41 µM in experiment [8] and 38.1 µM in [9].

In the case of `CCCC(OCC)(OCC)OCC`, the TGI in experiment [1], in experiment [2], in [3], in [4], in [5] and in experiment [6] was more than 100 µM each time. The TGI in [10], in [8] and in experiment [9] was more than 100 µM throughout.

For `O=c1[nH]cnc2c(C3OC(CO)C(O)C3O)[nH]nc12` (centres undefined), the TGI in [1] is 48.6 µM; in experiment [2] it was more than 100 µM; in experiment [3], more than 100 µM; in experiment [4], more than 100 µM; in [5], more than 100 µM; in experiment [6] it was more than 100 µM. The TGI in [7], in experiment [10] and in [9] was more than 100 µM in each case.

With `CCOC(=O)C1Cc2c(ccc(OC)c2OC)C(=O)C1N` (centres undefined), the TGI in experiment [1], in experiment [2], in experiment [3], in experiment [4], in [5] and in experiment [6] was more than 100 µM in each case. The TGI in experiment [7], in [10], in [8] and in [9] was more than 100 µM each time.

As for `Cc1cc(C)c(C(=O)O)c(N)c1O`, the TGI in experiment [1], in [2], in [3], in experiment [4], in [5] and in experiment [6] was more than 100 µM throughout. The TGI in experiment [7], in experiment [10], in experiment [8] and in experiment [9] was more than 100 µM each time.

As to `C/C(CC(=O)CCCC(=O)Nc1ccc(Cl)cc1Cl)=N/NC(=O)CC#N`, the TGI in [1], in experiment [2], in experiment [3], in experiment [4], in [5] and in [6] was more than 100 µM throughout. Further, the TGI in experiment [7], in experiment [10], in [8] and in experiment [9] was more than 100 µM in each case.

Consider `COc1cc2c(c(OC)c1OC)-c1ccc([O-])c(=O)cc1[C@@H](NC(C)=O)CC2.COc1cc2c(c(OC)c1OC)-c1ccc([O-])c(=O)cc1[C@@H](NC(C)=O)CC2.[Cu+2]`, for which the GI50 in [1] is 4.91 µM; in experiment [2], 3.33 µM; in [3], 3.73 µM; in [4], 2.94 µM; in experiment [5], 2.05 µM; in [6], 2.79 µM. In addition, the GI50 is 3.44 µM in experiment [7], 12.5 µM in experiment [10], 3.59 µM in experiment [8] and 14.8 µM in experiment [9]. For the same compound, the TGI is more than 100 µM in [1]; 19 µM in experiment [2]; more than 100 µM in [3]; 12 µM in [4]; 4.82 µM in [5]; more than 100 µM in experiment [6]. The TGI in [7], in [10], in [8] and in experiment [9] was more than 100 µM each time.

On to `Nc1nc(N)c2nc(CNc3ccc(C(=O)CC(CCC(=O)O)C(=O)O)cc3)cnc2n1` (centres undefined), for which the TGI in [1], in experiment [2], in experiment [3], in experiment [4], in [5] and in experiment [6] was more than 100 µM in each case. Further, the TGI in [7], in [10], in [8] and in experiment [9] was more than 100 µM in each case. Also, the GI50 in experiment [2] is 0.0562 µM; in experiment [3], 0.168 µM; in [4], 0.45 µM; in [5], less than 0.018 µM; in experiment [6], 0.202 µM; in [7] it was 0.0332 µM. Besides, the results for the GI50 in [10] and in [8] were more than 25.5 µM and more than 100 µM, respectively.

Consider `NCCCNc1ccc2c(c1)[n+]([O-])c1ccccc1[n+]2[O-]`, for which the TGI in experiment [1] is 92.6 µM; in [2] it was 91.4 µM; in [3] it was 66.3 µM; in [4] it was 31.8 µM; in [5], 57.6 µM; in [6], more than 100 µM. The figures for the TGI in experiment [7], in experiment [10] and in experiment [9] were more than 100 µM, 83.2 µM and more than 100 µM, respectively.

Regarding `COc1cc2[nH]c(C(=O)c3cc(OC)c(OC)c(OC)c3)c(N)c2cc1C#CCO`, the GI50 was 0.528 µM in [1]; 0.309 µM in experiment [2]; 0.432 µM in experiment [3]; 0.087 µM in experiment [4]; 0.313 µM in [5]; 0.294 µM in [7]. Besides, the values for the GI50 in experiment [8] and in experiment [9] were 0.485 µM and 3.63 µM, respectively. Besides, the TGI in [1] was more than 100 µM; in experiment [2], more than 100 µM; in experiment [3], more than 100 µM; in experiment [4] it was 1.3 µM; in [5] it was 0.956 µM; in experiment [7] it was more than 100 µM. Further, the TGI in experiment [8] and in [9] was more than 100 µM in each case.

`COc1cc(C(=O)C/C(CCC(=O)Nc2ccccc2[N+](=O)[O-])=N\NC(=O)C(N)=O)ccc1O`: the TGI in experiment [1], in [2], in [3], in experiment [5], in [6] and in experiment [7] was more than 100 µM in each case. Further, the TGI in experiment [10], in [8] and in experiment [9] was more than 100 µM each time.

Take `CCC[CH2][Sn]1([CH2]CCC)[O]C(c2ccccn2)S(=O)(=O)[O]1` (centres undefined): the GI50 is 6.86 µM in experiment [1]; 1.54 µM in [2]; 1.79 µM in experiment [3]; 12.5 µM in experiment [4]; 2.14 µM in experiment [5]; 3.57 µM in experiment [6]. Besides, the figures for the GI50 in experiment [7], in experiment [10] and in experiment [8] were 1.56 µM, 1.79 µM and 1.7 µM, respectively. For the same compound, the TGI in experiment [1] is 20.1 µM; in [2], 4.19 µM; in [3], 3.5 µM; in [4] it was 25 µM; in [5], 5.04 µM; in experiment [6] it was 11.2 µM. In addition, the TGI in experiment [7] is 3.02 µM; in [10] it was 3.29 µM; in experiment [8], 3.22 µM.

Turning to `CCN1C(C)=NC2C(=O)c3ccccc3C(=O)C21` (centres undefined), the TGI in [1] is 62.7 µM; in experiment [2] it was more than 100 µM; in experiment [3], more than 100 µM; in experiment [4] it was 68 µM; in experiment [5], more than 100 µM; in experiment [6] it was more than 100 µM. The TGI in experiment [7], in experiment [10] and in [8] was more than 100 µM each time.

Take `CCc1ccccc1NC(=O)/C(CC(=O)c1c(C)n([O-])c2ccccc2[n+]1=O)=N\NS(=O)(=O)c1ccc(C)cc1`: the TGI in experiment [1] was 90.4 µM; in experiment [2] it was 52.6 µM; in experiment [3], more than 100 µM; in [5] it was 41.6 µM; in [6], more than 100 µM; in experiment [7], more than 100 µM. The TGI in experiment [10] is 82.1 µM; in experiment [8], more than 100 µM; in experiment [9], more than 100 µM.

With `CC(=O)CC(=O)N(CCN(C(=O)CC(C)=O)c1ccccc1)c1ccccc1`, the TGI in experiment [1], in [2], in [4], in experiment [5], in experiment [6] and in [7] was more than 100 µM in each case. For the same compound, the TGI in experiment [10], in [8] and in experiment [9] was more than 100 µM each time.

Regarding `C/C(=N\O)c1sc(-n2nc(-c3ccccc3)cc2-c2ccccc2)nc1C`, the TGI in experiment [2] was found to be 25.6 µM; in experiment [3] it was 22.9 µM; in experiment [4], 17.3 µM; in experiment [5], 23 µM; in experiment [6], 18.3 µM; in experiment [7], 19.6 µM. Also, the TGI is 21.3 µM in [10] and more than 65.6 µM in experiment [8].

`Cc1nc(NC(=S)NC(=O)c2ccc(Cl)c(Cl)c2)sc1C(=O)/C=C/c1ccccc1[N+](=O)[O-]`: the TGI is 88.2 µM in experiment [1]; 73.9 µM in [2]; 51 µM in experiment [3]; 45.8 µM in experiment [5]; 51.5 µM in [6]; 41.2 µM in [7]. The TGI came out at 89.1 µM in [10] and 44.4 µM in [8].

On to `C=C1C(=O)O[C@@H]2[C@H]1CC[C@H](C)[C@]1(O)CCC(=O)[C@@]21C`, for which the TGI in [1], in experiment [2], in experiment [3], in experiment [4], in experiment [5] and in experiment [7] was more than 10 µM each time. Further, the TGI in [8] is more than 10 µM.

Regarding `CCCCCCCCN(CCCCCCCC)C(=N)c1ccnc2ccccc12`, the GI50 in experiment [1] is 1.2 µM; in [2], 0.466 µM; in experiment [3], 0.348 µM; in [5], 1.3 µM; in [6], 0.336 µM; in [10] it was 1.75 µM. Moreover, the GI50 in [8] was 1.78 µM; in experiment [9], 1.5 µM. Further, the TGI in [1] is 2.6 µM; in [2], 2.2 µM; in [3], 1.33 µM; in [5] it was 2.97 µM; in [6] it was 1.36 µM; in [10] it was 3.35 µM. The figures for the TGI in experiment [8] and in [9] were 3.35 µM and 3.05 µM, respectively.

Turning to `CCN1C(=O)N(CC)C2C1NN=c1s/c(=C3\C(=O)N(CCC(C)C)c4ccccc43)c(=O)n12` (centres undefined), the GI50 in [1] is 1.02 µM; in experiment [2], 2.66 µM; in experiment [3] it was 1.31 µM; in [4] it was 1.55 µM; in experiment [5], 2.12 µM; in experiment [7] it was 1.08 µM. Moreover, the GI50 is 3.72 µM in [10] and 2.32 µM in experiment [8]. Further, the TGI in experiment [1] was more than 100 µM; in [2], more than 100 µM; in [3], 3.75 µM; in experiment [4], 3.41 µM; in experiment [5], 4.5 µM; in [7], more than 100 µM. Further, the TGI was more than 100 µM in experiment [10] and 11.4 µM in experiment [8].

As for `C/C(=C\c1ccn(-c2ccc(N)c(C(F)(F)F)c2)n1)[C@@H]1C[C@@H]2O[C@]2(C)CCC[C@H](C)[C@H](O)[C@@H](C)C(=O)C(C)(C)[C@@H](O)CC(=O)O1`, the GI50 in experiment [1] is 0.132 µM; in [2], 0.0117 µM; in experiment [3], 0.0109 µM; in [4], less than 0.0108 µM; in experiment [5], 0.0086 µM; in experiment [7], 0.00743 µM. Also, the GI50 was 4.27 µM in [10], 0.0241 µM in experiment [8] and 0.025 µM in [9]. The TGI in experiment [1] was more than 32.5 µM; in experiment [2], more than 32.5 µM; in experiment [3], more than 27.8 µM; in experiment [4], 3.78 µM; in [5], 0.203 µM; in [7], more than 32.5 µM. Further, the TGI in [10] was more than 32.5 µM; in [8], 10.4 µM; in experiment [9] it was more than 26.1 µM.

Regarding `C#C[C@@]1(O)[C@@H](CO)O[C@@H](n2cc(Cl)c3c(N)ncnc32)[C@@H]1O`, the GI50 was 0.323 µM in experiment [1]; 0.248 µM in experiment [2]; 0.143 µM in experiment [3]; 0.0341 µM in experiment [5]; 0.177 µM in experiment [6]; 0.0709 µM in [7]. Moreover, the GI50 in experiment [10] is 0.347 µM; in experiment [8], 0.146 µM; in [9], 0.425 µM. Also, the TGI in experiment [1] is 3.34 µM; in [2], more than 100 µM; in [3] it was more than 100 µM; in experiment [5], 0.197 µM; in experiment [6], 0.585 µM; in experiment [10] it was more than 79.9 µM. Also, the TGI in experiment [8] was 0.481 µM; in experiment [9], more than 84.2 µM.

The values are drawn from PubChem BioAssay (NCI).
